According to PubChem BioAssay (NCI):
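Abbreviation: GI50, concentration required for 50% inhibition of growth. The concentration for full growth arrest is given as TGI.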

Experiments:
Test in all cases: inhibition of tumour cell growth, NCI panel, 384-well format
COLO 205 colon = system: COLO 205 colon
ACHN renal = system: ACHN renal
SK-MEL-2 melanoma = system: SK-MEL-2 melanoma
DU-145 prostate = system: DU-145 prostate
IGROV1 ovarian = system: IGROV1 ovarian
KM12 colon = system: KM12 colon
SK-MEL-28 melanoma = system: SK-MEL-28 melanoma
NCI/ADR-RES ovarian = system: NCI/ADR-RES ovarian
HCT-116 colon = system: HCT-116 colon
HT29 colon = system: HT29 colon
HOP-62 NSCLC = system: HOP-62 NSCLC
MDA-MB-231 breast = system: MDA-MB-231 breast
SN12C renal = system: SN12C renal
CAKI-1 renal = system: CAKI-1 renal
SF-268 CNS = system: SF-268 CNS
U251 glioblastoma = system: U251 glioblastoma
SK-OV-3 ovarian = system: SK-OV-3 ovarian
UACC-62 melanoma = system: UACC-62 melanoma
LOX IMVI melanoma = system: LOX IMVI melanoma
CCRF-CEM leukemia = system: CCRF-CEM leukemia
SK-MEL-5 melanoma = system: SK-MEL-5 melanoma
HOP-92 NSCLC = system: HOP-92 NSCLC
NCI-H23 lung = system: NCI-H23 lung
HCT-15 colon = system: HCT-15 colon
OVCAR-4 ovarian = system: OVCAR-4 ovarian
RXF 393 renal = system: RXF 393 renal
786-0 renal = system: 786-0 renal
HCC-2998 colon = system: HCC-2998 colon
A498 renal = system: A498 renal
T-47D breast = system: T-47D breast
SNB-19 CNS = system: SNB-19 CNS
A549 NSCLC = system: A549 NSCLC
HL-60(TB) leukemia = system: HL-60(TB) leukemia
SW-620 colon = system: SW-620 colon
SF-539 CNS = system: SF-539 CNS
MALME-3M melanoma = system: MALME-3M melanoma
SF-295 CNS = system: SF-295 CNS
MOLT-4 leukemia = system: MOLT-4 leukemia
NCI-H322M lung = system: NCI-H322M lung
MCF7 breast = system: MCF7 breast
RPMI-8226 leukemia = system: RPMI-8226 leukemia
OVCAR-5 ovarian = system: OVCAR-5 ovarian
TK-10 renal = system: TK-10 renal
M14 melanoma = system: M14 melanoma
OVCAR-8 ovarian = system: OVCAR-8 ovarian
NCI-H522 lung = system: NCI-H522 lung
MDA-MB-435 melanoma = system: MDA-MB-435 melanoma
BT-549 breast = system: BT-549 breast
MDA-MB-468 breast = system: MDA-MB-468 breast
UACC-257 melanoma = system: UACC-257 melanoma
OVCAR-3 ovarian = system: OVCAR-3 ovarian
PC-3 prostate = system: PC-3 prostate
NCI-H460 NSCLC = system: NCI-H460 NSCLC
SR leukemia = system: SR leukemia
K-562 leukemia = system: K-562 leukemia
UO-31 renal = system: UO-31 renal
NCI-H226 lung = system: NCI-H226 lung

SMILES: Cc1c(N(C(=O)c2cc(-c3cc(Cl)ccc3C(=O)N3Cc4ccccc4C[C@H]3CN3CCOCC3)n(C)c2C)c2ccc(O)cc2)cc(C#N)n1C
- GI50 (COLO 205 colon): 25.5 µM
- TGI (COLO 205 colon): > 100 µM
- GI50 (ACHN renal): 7.31 µM
- TGI (ACHN renal): > 100 µM
- GI50 (SK-MEL-2 melanoma): 5.97 µM
- TGI (SK-MEL-2 melanoma): 20 µM
- GI50 (DU-145 prostate): 16.3 µM
- TGI (DU-145 prostate): > 100 µM
- GI50 (IGROV1 ovarian): 13.5 µM
- TGI (IGROV1 ovarian): > 100 µM
- GI50 (KM12 colon): 16.1 µM
- TGI (KM12 colon): > 100 µM
- GI50 (SK-MEL-28 melanoma): 17.1 µM
- TGI (SK-MEL-28 melanoma): 67.1 µM
- GI50 (NCI/ADR-RES ovarian): 50.5 µM
- TGI (NCI/ADR-RES ovarian): > 100 µM
- GI50 (HCT-116 colon): 4.12 µM
- TGI (HCT-116 colon): > 100 µM
- GI50 (HT29 colon): 10.9 µM
- TGI (HT29 colon): 43.6 µM
- GI50 (HOP-62 NSCLC): 5.87 µM
- TGI (HOP-62 NSCLC): 29.3 µM
- GI50 (MDA-MB-231 breast): 3.74 µM
- TGI (MDA-MB-231 breast): 14.1 µM
- GI50 (SN12C renal): 9.51 µM
- TGI (SN12C renal): > 100 µM
- GI50 (CAKI-1 renal): 9.01 µM
- TGI (CAKI-1 renal): 66.1 µM
- GI50 (SF-268 CNS): 22 µM
- TGI (SF-268 CNS): > 100 µM
- GI50 (U251 glioblastoma): 7.69 µM
- TGI (U251 glioblastoma): > 100 µM
- GI50 (SK-OV-3 ovarian): 11.5 µM
- TGI (SK-OV-3 ovarian): 45.2 µM
- GI50 (UACC-62 melanoma): 6.3 µM
- TGI (UACC-62 melanoma): 27.3 µM
- GI50 (LOX IMVI melanoma): 10.4 µM
- TGI (LOX IMVI melanoma): 33 µM
- GI50 (CCRF-CEM leukemia): 1.68 µM
- TGI (CCRF-CEM leukemia): 3.11 µM
- GI50 (SK-MEL-5 melanoma): 9.04 µM
- TGI (SK-MEL-5 melanoma): 28.4 µM
- GI50 (HOP-92 NSCLC): 2.58 µM
- TGI (HOP-92 NSCLC): 7.15 µM
- GI50 (NCI-H23 lung): 9.38 µM
- TGI (NCI-H23 lung): > 100 µM
- GI50 (HCT-15 colon): 9.36 µM
- TGI (HCT-15 colon): 24.1 µM
- GI50 (OVCAR-4 ovarian): 5.99 µM
- TGI (OVCAR-4 ovarian): 37.5 µM
- GI50 (RXF 393 renal): 0.886 µM
- TGI (RXF 393 renal): 3.92 µM
- GI50 ([…]-0 renal): 6.22 µM
- TGI (786-0 renal): 30 µM
- GI50 (HCC-2998 colon): 3.35 µM
- TGI (HCC-2998 colon): 8.64 µM
- GI50 (A498 renal): 4.79 µM
- TGI (A498 renal): 19 µM
- GI50 (T-47D breast): 6.85 µM
- TGI (T-47D breast): > 100 µM
- GI50 (SNB-19 CNS): 7.72 µM
- TGI (SNB-19 CNS): > 100 µM
- GI50 (A549 NSCLC): 7.07 µM
- TGI (A549 NSCLC): > 100 µM
- GI50 (HL-60(TB) leukemia): 0.0546 µM
- TGI (HL-60(TB) leukemia): 1.19 µM
- GI50 (SW-620 colon): 11.3 µM
- TGI (SW-620 colon): 25.7 µM
- GI50 (SF-539 CNS): 9.73 µM
- TGI (SF-539 CNS): > 100 µM
- GI50 (MALME-3M melanoma): 19.2 µM
- TGI (MALME-3M melanoma): 47.2 µM
- GI50 (SF-295 CNS): 13.4 µM
- TGI (SF-295 CNS): 62.6 µM
- GI50 (MOLT-4 leukemia): 1.61 µM
- TGI (MOLT-4 leukemia): 2.97 µM
- GI50 (NCI-H322M lung): 24.7 µM
- TGI (NCI-H322M lung): > 100 µM
- GI50 (MCF7 breast): 11.4 µM
- TGI (MCF7 breast): > 100 µM
- GI50 (RPMI-8226 leukemia): 1.26 µM
- TGI (RPMI-8226 leukemia): 2.52 µM
- GI50 (OVCAR-5 ovarian): 28 µM
- TGI (OVCAR-5 ovarian): > 100 µM
- GI50 (TK-10 renal): 12.5 µM
- TGI (TK-10 renal): 58.6 µM
- GI50 (M14 melanoma): 12 µM
- TGI (M14 melanoma): 34.1 µM
- GI50 (OVCAR-8 ovarian): 8.66 µM
- TGI (OVCAR-8 ovarian): > 100 µM
- GI50 (NCI-H522 lung): 12.8 µM
- TGI (NCI-H522 lung): 36.8 µM
- GI50 (MDA-MB-435 melanoma): 5.21 µM
- TGI (MDA-MB-435 melanoma): 19.3 µM
- GI50 (BT-549 breast): 12.5 µM
- TGI (BT-549 breast): 30.9 µM
- GI50 (MDA-MB-468 breast): 2.84 µM
- TGI (MDA-MB-468 breast): 7.25 µM
- GI50 (UACC-257 melanoma): 10.1 µM
- TGI (UACC-257 melanoma): 28.5 µM
- GI50 (OVCAR-3 ovarian): 3.87 µM
- TGI (OVCAR-3 ovarian): 18.9 µM
- GI50 (PC-3 prostate): 7.32 µM
- TGI (PC-3 prostate): 65.6 µM
- GI50 (NCI-H460 NSCLC): 6.2 µM
- TGI (NCI-H460 NSCLC): > 100 µM
- GI50 (SR leukemia): 1.46 µM
- TGI (SR leukemia): 2.87 µM
- GI50 (K-562 leukemia): 4.85 µM
- TGI (K-562 leukemia): 38.2 µM
- GI50 (UO-31 renal): 10.9 µM
- TGI (UO-31 renal): > 100 µM
- GI50 (NCI-H226 lung): 9.16 µM
- TGI (NCI-H226 lung): 22.2 µM
